Active and inactive are the calls of the source. No cut-off for these calls is given here.
Tests used:
MDA-MB-231 [1] = experiment: Antiproliferative activity against human MDA-MB-231 cells at 50 uM after 72 hrs by MTT assay; assay type: functional, cell-based
MCF7 [2] = experiment: Antiproliferative activity against human MCF7 cells at 50 uM after 72 hrs by MTT assay; assay type: functional, cell-based
SK-BR-3 [3] = experiment: Antiproliferative activity against human SKBR3 cells at 50 uM after 72 hrs by MTT assay; assay type: functional, cell-based
MCF-10A = experiment: Cytotoxicity against human MCF10A after 72 hrs by MTT assay; assay type: cell-based
SK-BR-3 [4] = experiment: Cytotoxicity against human SKBR3 cells assessed as reduction in cell viability after 72 hrs by MTT assay; assay type: functional, cell-based; details: SK-BR-3, 72 h
MDA-MB-231 [5] = experiment: cells; details: Homo sapiens, MDA-MB-231, 72 h
Description: Cytotoxicity against human MDA-MB-231 cells assessed as reduction in cell viability after 72 hrs by MTT assay

MCF7 [6] = experiment: Cytotoxicity against human MCF7 cells assessed as reduction in cell viability after 72 hrs by MTT assay; assay type: functional, cell-based; details: MCF7, 72 h
MCF7 [7] = experiment: Cell cycle arrest in human MCF7 cells assessed as accumulation at S phase after 24 hrs by propidium iodide-staining based FACS analysis; assay type: functional
MCF7 [8] = experiment: Induction of apoptosis in human MCF7 cells assessed as increase in cleaved PARP-1 expression at 1 to 10 uM after 24 hrs by immunoblot method; assay type: functional, cell-based
MCF7 [9] = experiment: Cell cycle arrest in human MCF7 cells assessed as accumulation at G2/M phase at 10 uM after 24 hrs by propidium iodide-staining based FACS analysis (reference value: 6.3%); assay type: functional
MCF7 [10] = experiment: Increase in p53 expression in human MCF7 cells at 1 to 10 uM after 24 hrs by immunoblot method; assay type: functional, cell-based
MCF7 [11] = experiment: Cell cycle arrest in human MCF7 cells assessed as accumulation at G0/G1 phase at 5 uM after 24 hrs by propidium iodide-staining based FACS analysis (reference value: 71.1%); assay type: functional
MCF7 [12] = experiment: Cell cycle arrest in human MCF7 cells assessed as accumulation at S phase at 5 uM after 24 hrs by propidium iodide-staining based FACS analysis (reference value: 22.6%); assay type: functional
MCF7 [13] = experiment: Change in cyclin D1 levels in human MCF7 cells at 1 to 10 uM after 24 hrs by Western blot analysis; assay type: functional, cell-based
MCF7 [14] = experiment: Cell cycle arrest in human MCF7 cells assessed as accumulation at G0/G1 phase at 10 uM after 24 hrs by propidium iodide-staining based FACS analysis (reference value: 71.1%); assay type: functional
MCF7 [15] = experiment: Cell cycle arrest in human MCF7 cells assessed as accumulation at G2/M phase at 5 uM after 24 hrs by propidium iodide-staining based FACS analysis (reference value: 6.3%); assay type: functional
MCF7 [16] = experiment: Cell cycle arrest in human MCF7 cells assessed as accumulation at S phase at 10 uM after 24 hrs by propidium iodide-staining based FACS analysis (reference value: 22.6%); assay type: functional
MCF7 [17] = experiment: Increase in p21waf1/cip1 protein expression in human MCF7 cells at 1 to 10 uM after 24 hrs by immunoblot method; assay type: functional, cell-based

O=c1oc2cccn2c2ncccc12
Activity (MDA-MB-231 [1]): Active
Activity (MCF7 [2]): Active
Activity (SK-BR-3 [3]): Active

O=c1oc2cccn2c2cc3ccccc3cc12
Activity (MDA-MB-231 [1]): Active
Activity (MCF7 [2]): Active
Activity (SK-BR-3 [3]): Active

COc1cccc2c1C(=O)c1c(O)c3c(c(O)c1C2=O)C[C@@](O)(C(=O)CO)C[C@@H]3O[C@H]1C[C@H](N)[C@H](O)[C@H](C)O1 [DOXORUBICIN]
IC50 (MCF-10A): 12.5 µM
IC50 (SK-BR-3 [4]): 8.48 µM
IC50 (MDA-MB-231 [5]): 10 µM

COC(=O)c1ccc(-c2ccc3c(c2)c(=O)oc2cccn23)cc1
IC50 (MCF-10A): 162 µM
IC50 (SK-BR-3 [4]): 59.3 µM
IC50 (MDA-MB-231 [5]): 65 µM
IC50 (MCF7 [6]): 48.7 µM

O=c1oc2cccn2c2ccc(-c3ccc(-c4ccccc4)cc3)cc12
Activity (MCF7 [7]): Dose-dependent effect
IC50 (MCF-10A): > 250 µM
Activity (MCF7 [8]): Active
Activity (MCF7 [9]): 8.4%
Activity (MCF7 [10]): Active
IC50 (SK-BR-3 [4]): 9.2 µM
Activity (MCF7 [11]): 76.6%
IC50 (MDA-MB-231 [5]): 10 µM
Activity (MCF7 [12]): 15.6%
Activity (MCF7 [13]): Active
Activity (MCF7 [14]): 72.8%
Activity (MCF7 [15]): 7.8%
Activity (MCF7 [16]): 18.8%
Activity (MCF7 [17]): Active
IC50 (MCF7 [6]): 9.03 µM

O=c1oc2cccn2c2ccc(Br)cc12
Activity (MDA-MB-231 [1]): Active
Activity (MCF7 [2]): Active
IC50 (MCF-10A): 262 µM
IC50 (SK-BR-3 [4]): 126 µM
IC50 (MDA-MB-231 [5]): 217 µM
Activity (SK-BR-3 [3]): Active
IC50 (MCF7 [6]): 123 µM

O=c1oc2cccn2c2ccc(-c3cccnc3O)cc12
IC50 (MCF-10A): 154 µM
IC50 (SK-BR-3 [4]): 72 µM
IC50 (MDA-MB-231 [5]): 78.9 µM
IC50 (MCF7 [6]): 60.9 µM

O=c1oc2cccn2c2ccc(-c3ccccc3)cc12
IC50 (MCF-10A): 180 µM
IC50 (SK-BR-3 [4]): 61 µM
IC50 (MDA-MB-231 [5]): 93.5 µM
IC50 (MCF7 [6]): 66.5 µM

O=c1oc2cccn2c2ccc(-c3ccc(O)cc3)cc12
IC50 (MCF-10A): 79.8 µM
IC50 (SK-BR-3 [4]): 27 µM
IC50 (MDA-MB-231 [5]): 31 µM
IC50 (MCF7 [6]): 18.5 µM

O=c1oc2cccn2c2ccccc12
Activity (MDA-MB-231 [1]): Active
Activity (MCF7 [2]): Active
Activity (SK-BR-3 [3]): Active

O=c1oc2cccn2c2ccc(-c3ccc(C(F)(F)F)nc3)cc12
IC50 (MCF-10A): 155 µM
IC50 (SK-BR-3 [4]): 46.8 µM
IC50 (MDA-MB-231 [5]): 73 µM
IC50 (MCF7 [6]): 43.1 µM
